As a reminder, the % inhibition is the share of the control response that was lost under treatment.

The assay relates to drug-resistant Mycobacterium tuberculosis. As to conditions: Mycobacterium tuberculosis resistant to PAS, streptomycin, INH; peptide 10 micrograms per ml; seven days.

Take `CSCC[C@H](NC(=O)[C@H](CCCNC(=N)N)NC(=O)[C@H](Cc1ccc(O)cc1)NC(=O)[C@@H]1CCCN1C(=O)CNC(=O)[C@H](CCC(=O)O)NC(=O)[C@H](CC(=O)O)NC(=O)[C@H](CCCCN)NC(=O)[C@H](CCCCN)NC(=O)[C@H](CCC(=O)O)NC(=O)[C@H](C)N)C(=O)N[C@@H](CCC(=O)O)C(=O)N[C@@H](Cc1c[nH]cn1)C(=O)N[C@@H](Cc1ccccc1)C(=O)N[C@@H](CCCNC(=N)N)C(=O)N[C@@H](Cc1c[nH]c2ccccc12)C(=O)NCC(=O)N[C@@H](CO)C(=O)N1CCC[C@H]1C(=O)N1CCC[C@H]1C(=O)N[C@@H](CCCCN)C(=O)N[C@@H](CC(=O)O)C(=O)O` [Beta MSH]: the “% inhibition” value is on record as 0.0%.
